Experimental data from article PMC6161288, “Bioavailability of Eurycomanone in Its Pure Form and in a Standardised Eurycoma longifolia Water Extract” (Pharmaceutics, 2018).
Like-named read-outs stand apart in the source and are kept apart here.

How the values were obtained:
[1] = Pharmacokinetics of eurycomanone in mice (intravenous and oral); format: in vivo, CD-1 mice; settings: plasma; for AUC(0-t): read-out: AUC0–8
Excerpt: The ethical approval for the animal experiments conducted in India was granted from the Animal Ethics Committee, Aurigene Discovery Technologies, Bangalore, India. Eight male Wistar rats (12 weeks old; weighing 250–350 g) and eight Caeserean Derived-1 (CD-1) mice (weighing 20–30 g) were obtained from the Animal House, Aurigene Discovery Technologies, Bangalore, India. They were supplied with standard rodent diets and drinking water ad libitum. Each rodent species (i.e., rats and mice) were divided into two groups. One group (n = 3 for each rodent species) was administered with eurycomanone via the intravenous route (IV) and another group (n = 3 for each rodent species) via the oral route (PO) using oral gavage intubation needle. Two animals of each of the species were used as a control and they received reverse osmosis water. All rats underwent jugular vein cannulation surgery 72 h prior to the administration of the eurycomanone.
Eurycomanone (rats: 1.5 mg/mL for IV route and 3.0 mg/mL for PO route; mice: 0.5 mg/mL for IV route and 1.0 mg/mL for PO route) samples were prepared fresh on the day of dosing. For the IV administration, eurycomanone was dissolved in 3% NMP and 97% of 10% HPCD in saline. For the oral administration, eurycomanone was dissolved in 3% NMP and 97% of 30% HPCD in saline. Both samples were sonicated before use. The SWE (5 mg/mL for IV route, 10 mg/mL for PO route) was prepared fresh on the day of dosing. For the IV administration, the SWE was dissolved in reverse osmosis water and filtered (0.2 µm pore size) before administration. The SWE for the PO administration was prepared using the same method, except without filtering. The animals were not fasted and doses given were based on the body weights prior to dosing.
Blood specimens (approximately 0.30–0.40 mL via the jugular vein cannula for rats and 0.10–0.20 mL via submanibular bleeding for mice) were collected at time points 0.083 (IV group only), 0.25, 0.5, 1, 2, 4, 6, and 8 h post-dosing with eurycomanone. At the experiment end point, the animals were euthanized by excess isoflurane inhalation followed by cervical dislocation. In the experiment using SWE, the rats were placed in metabolic cages (Techniplast, West Chester, PA, USA) and blood (approximately 0.30–0.40 mL collected via the jugular vein cannula), urine, and faeces specimens were collected at the same time points with the above plus one additional time point of 24 h. Kidney and liver specimens were collected at necropsy, where the rats were euthanized by CO2 inhalation followed by cervical dislocation. All blood specimens were centrifuged (10,000 rpm, 10 min) to obtain plasma and were stored at −80 °C until processed. Urine and faeces specimens were collected into plastic containers on wet ice while the organ specimens were snap-frozen in liquid nitrogen and maintained at −80 °C until processed.
Plasma specimens (100 µL), collected from the eurycomanone experiment were added with the internal standard solution (10 µL). Plasma proteins were precipitated with ACN (300 µL), vortex-mixed for 5 min, and centrifuged at 4000 rpm for 7 min. The supernatant was collected and evaporated using a nitrogen evaporator for 20 min at 50 °C. Thereafter, they were reconstituted with the mobile phase (500 µL) and transferred into LC-MS vials for analysis.
Eurycomanone detection in the pure eurycomanone experiments was done via the LC-MS/MS system consisting of an Agilent 1260 Infinity HPLC system and an AB SCIEX API 4000™ Triple-Quadrupole mass spectrometer equipped with TurboIonSpray® probe and atmospheric pressure chemical ionization (APCI) (AB Sciex LLC, Framingham, MA, USA). Electrospray ionization (ESI) was performed in positive ion mode. The analytical column was Agilent Zorbax Eclipse-C18 (4.6 mm I.D. × 150 mm, 3.5 µm). The mobile phase consisted of 0.1% formic acid (solvent A) and 90% ACN with 0.1% formic acid (solvent B). […]

[2] = Liver microsome metabolic stability, rat; format: in vitro ADME; settings: rat liver microsomes
Protocol: (§1) The liver microsome stability assay of eurycomanone was estimated using phase I and phase II enzymes in five types of microsomes (mice, rat, dog, monkey, and human). Eurycomanone at 1 mM (20 µL), microsomes at 0.3 mg/mL (20 µL), and 10 mg/mL of alamethicin in 1:1 DMSO and methanol (20 µL) were preincubated at 37 °C for 10 min. The cofactor, 5 mM UDPGA (20 µL), and 1 mM NADPH (20 µL) were added to make the final assay volume of 100 µL. At timepoints 0, 15, 30, 45, 60, and 90 min, […] of the reaction mixture is taken out and added to the stop solution. The supernatants (10,000 rpm, 10 min, 4 °C) were collected and analysed using LC-MS/MS. The standards used for mice and rat liver microsomes were propranolol and dasatinib. The standards used with the dog and monkey liver microsomes were propranolol and midazolam, while the standards used with the human liver microsomes were propranolol and terfinadine.

[3] = Liver microsome metabolic stability, human; format: in vitro ADME; settings: human liver microsomes
Protocol: as §1

Plasma stability, rat = format: in vitro ADME; settings: 5 µM, 37 °C, up to 4 h
Protocol: The plasma stability was estimated by preparing 5 µM of eurycomanone in 600 µL plasma in triplicates. The plasma stability of eurycomanone was determined in five types of plasma (mice, rat, dog, monkey, and human). The reaction was kept at 37 °C and ACN (100 µL) was added at timepoints 0, 30 min, and 1, 2, and 4 h to the reaction mixture (100 µL). The supernatant (10,000 rpm, 10 min, 4 °C) was collected and analysed by LC-MS/MS. The standards (propantheline bromide and enalapril) were analysed in triplicates.

[4] = Plasma protein binding (rapid equilibrium dialysis), mice; format: in vitro ADME; settings: mouse, pH 7.4, 37 °C, read-out: percentage bound to plasma protein (converted)
Protocol: The ability of eurycomanone to bind plasma protein was analysed in five types of plasma (mice, rat, dog, monkey, and human). Each type of plasma was spiked with eurycomanone (1 mM) to make the 10 µM test concentration of eurycomanone in the plasma. Equilibrium dialysis buffer (500 µL) at pH 7.4 was added to the right chamber in rapid equilibrium dialysis (RED), while the spiked plasma (300 µL) was added to the left chamber. The Teflon base plate was covered with aluminium foil and left on the shaking incubator at 37 °C for 4 h. The matrix was balanced by mixing 100 µL of the equilibrium buffer with the spiked plasma from the left chamber in RED before adding the stop solution (350 µL) to precipitate out the protein. The supernatant (10,000 rpm, 10 min, 4 °C) was collected and analysed using LC-MS/MS. The standards (propranolol, warfarin, and acebutalol) were analysed in duplicates.

[5] = system: HepG2 cell-induced tumours; set-up: method as in earlier work; settings: 17 mg/kg orally, nude mice with HepG2 cell-induced tumours; cited from earlier work
[6] = read-out: Intrinsic clearance (Clint)

In the case of `C=C1[C@@H](O)[C@]2(O)OC[C@]34[C@H]2[C@@]2(C)[C@H](O)C(=O)C=C(C)[C@@H]2C[C@H]3OC(=O)[C@H](O)[C@@]14O` [Eurycomanone], the “Observed Cmax” value ([1]; 10 mg/kg oral, 10 mg/kg) is reported as 334.7 ng/mL, the AUC(0-t) ([1]; CD-1, mouse, 1 mg/kg intravenous) is reported as 221 ng·h/mL and the AUC(0-t) ([1]; CD-1, mouse, 10 mg/kg oral) is reported as 1210 ng·h/mL. The half-life ([1]; CD-1, mouse, 1 mg/kg intravenous, read-out: Half-life (t1/2) (converted)) was 0.3 h, the clearance ([1]; CD-1, mouse, 1 mg/kg intravenous, read-out: Plasma Clearance (CL) (converted)) was 64.2 mL/min/kg and the Vd ([1]; CD-1, mouse, 1 mg/kg intravenous, read-out: Volume of Distribution at Steady State (Vss)) was 1.51 L/kg. For the same compound, the bioavailability ([1]; CD-1, mouse, 10 mg/kg oral vs 1 mg/kg intravenous, read-out: Bioavailability (F)) was 54.9%, the Tmax ([1]; CD-1, mouse, 10 mg/kg oral, read-out: Observed Tmax) was 2 h and the Cmax ([1]; CD-1, mouse, po, 10 mg/kg, 10 mg/kg oral, read-out: Observed Cmax) was 335 ng/mL. For the same compound, the “Half-life (t1/2)” value [2] was >1.5 h, the half-life at 200 µM [2] was > 1.5 h and the CLint scaled at 200 µM [2, 6] was 83.2 mL/min/kg. For the same compound, the “Half-life (t1/2)” value [3] was >1.5 h, the half-life at 200 µM [3] was > 1.5 h and the CLint scaled at 200 µM [3, 6] was 52.4 mL/min/kg. For the same compound, the plasma stability (Plasma stability, rat) was “highly stable”, the fraction unbound at 4 h, 10 µM [4] was 0.784 and the tumour suppression [5] was “tumour suppression ability was demonstrated”.
